# From patent US20240108740A1, “THERAPEUTIC COMPOSITIONS INCLUDING SPN10 AND USES THEREOF” (Stealth BioTherapeutics Inc., priority 2022, published 2024)
# Residues, ends and D or L forms follow the SMILES beside them.
# Experiments:
# [1] = system: Isolated mouse pancreatic islet cells; assay: Example 30: oxidative damage in pancreatic islet cells; assay type: cell-based; settings: 25 μM t-BHP
# Method: Isolated mouse pancreatic islet cells will be treated with 25 μM t-BHP alone or in the presence of peptide conjugates, aromatic-cationic peptides, or SPN10(s) with or without aromatic-cationic peptides. Mitochondrial membrane potential will be measured by TMRM (red) and reactive oxygen species will be measured by DCF (green) using confocal microscopy.
# N2A cells = assay: Example 26: mitochondrial membrane potential and ROS accumulation after t-BHP (TMRM, DCF); assay type: cell-based; settings: 0.1 mM t-BHP, 6 hours
# Method: N2A cells cultured in a glass dish will be treated with 0.1 mM t-BHP alone or in the presence of peptide conjugates (1 nM); aromatic-cationic peptides (an equivalent molar dose of aromatic-cationic peptide based on the concentration of the aromatic-cationic peptide administered in the peptide conjugate treatment group); SPN10(s) (an equivalent molar dose of SPN10 based on the concentration of SPN10 administered in the peptide conjugate treatment group) or SPN10(s) in combination with aromatic-cationic peptides (e.g., an equivalent molar dose of SPN10 based on the concentration of SPN10 administered in the peptide conjugate treatment group and an equivalent molar dose of aromatic-cationic peptide based on the concentration of aromatic-cationic peptide administered in the peptide conjugate treatment group) for 6 hours. Cells will then be loaded with 10 μM dichlorofluorescin (DCF) (ex/em=485/530) for 30 minutes at 37° C., 5% CO2. Cells will be washed 3 times with HBSS, stained with 20 nM of Mitotracker TMRM (ex/em=550/575 nm) for 15 minutes at 37° C., and examined by confocal laser scanning microscopy.
# Sprague-Dawley rats = assay: Example 47: wound contraction after burn injury; assay type: in vivo, rat; settings: compared to burn control subjects
# Method: Sprague-Dawley rats (male, 300-350 g) will be pre-treated with (1 mg) peptide conjugates administered i.p. (approx. 3 mg/kg) 1 hour prior to burn (65° C. water, 25 seconds, lower back), followed by the topical application of peptide conjugates to the wound (1 mg), and 1 mg peptide conjugates administered i.p. once every 12 hours for 72 hours. Wounds will be observed for up to 3 weeks post-burn. A similar treatment regimen is followed for the groups treated with aromatic-cationic peptides (an equivalent molar dose of aromatic-cationic peptide based on the concentration of the aromatic-cationic peptide administered in the peptide conjugate treatment group), SPN10(s) (an equivalent molar dose of SPN10 based on the concentration of SPN10 administered in the peptide conjugate treatment group), or SPN10(s) in combination with aromatic-cationic peptides (e.g., an equivalent molar dose of SPN10 based on the concentration of SPN10 administered in the peptide conjugate treatment group and an equivalent molar dose of aromatic-cationic peptide based on the concentration of aromatic-cationic peptide administered in the peptide conjugate treatment group).
# [2] = system: isolated mouse liver mitochondria; assay: Example 20: spontaneous and antimycin-induced H2O2 production by isolated mitochondria
# Method: Livers will be harvested from mice, homogenized in ice-cold buffer, and centrifuged at 13800×g for 10 min. The pellet will be washed once, re-suspended in 0.3 mL of wash buffer, and placed on ice until use. H2O2 will be measured using luminol chemiluminescence as described previously (Li, et al., Biochim. Biophys. Acta 1428, 1-12 (1999). 0.1 mg mitochondrial protein will be added to 0.5 mL potassium phosphate buffer (100 mM, pH 8.0) in the presence of vehicle, peptide conjugates, aromatic-cationic peptides, or SPN10(s) with or without aromatic-cationic peptides. 25 mM luminol and 0.7 IU horseradish peroxidase will be added, and chemiluminescence will be monitored with a Chronolog Model 560 aggregometer (Havertown, PA) for 20 minutes at 37° C. The amount of H2O2 produced will be quantified as the area under the curve (AUC) over 20 min, and all data will be normalized to AUC produced by mitochondria alone.
# [3] = system: fatty (fa/fa) Zucker rats; assay: Example 36: insulin resistance in fatty Zucker rats; assay type: in vivo, rat; settings: approximately 6 weeks
# Method: Peptide conjugates (1.0-5.0 mg/kg body wt); aromatic-cationic peptides (an equivalent molar dose of aromatic-cationic peptide based on the concentration of the aromatic-cationic peptide administered in the peptide conjugate treatment group); SPN10(s) (an equivalent molar dose of SPN10 based on the concentration of SPN10 administered in the peptide conjugate treatment group); or SPN10(s) in combination with aromatic-cationic peptides (e.g., an equivalent molar dose of SPN10 based on the concentration of SPN10 administered in the peptide conjugate treatment group and an equivalent molar dose of aromatic-cationic peptide based on the concentration of aromatic-cationic peptide administered in the peptide conjugate treatment group) will be administered to the rats intraperitoneally (i.p.) or orally (drinking water or oral gavage).
# Physiological parameters measured will include body weight, fasting glucose/insulin/free fatty acid, oral glucose tolerance (OGTT), in vitro muscle insulin sensitivity (in vitro incubation), biomarkers of insulin signaling (Akt-P, IRS-P), mitochondrial function studies on permeabilized fibers (respiration, H2O2 production), biomarkers of intracellular oxidative stress (lipid peroxidation, GSH/GSSG ratio, aconitase activity), and mitochondrial enzyme activity. Control animals will include wild-type and untreated fatty rats. […]
smiles,measurement,setting,value
"N=C(N)NCCC[C@H](NC(=O)[C@@H](N)Cc1c[nH]c2ccccc12)C(=O)N[C@@H](Cc1c[nH]c2ccccc12)C(=O)N[C@@H](CCCCN)C(N)=O [SPN10, H-L-Trp-L-Arg-L-Trp-L-Lys-NH2] (H-WRWK-NH2)",oxidative damage in isolated pancreatic islet cells,[1],protect against oxidative damage
same,ROS accumulation (DCF),N2A cells,reduce ROS accumulation
same,mitochondrial depolarization (TMRM),N2A cells,prevent mitochondrial depolarization
same,rate of wound contraction,Sprague-Dawley rats,slower rate of wound contraction
same,spontaneous production of H2O2,[2],dose-dependently reduce the spontaneous production of H2O2
same,production of H2O2 induced by antimycin,[2]; antimycin,dose-dependently reduce the production of H2O2 induced by antimycin
same,whole body and muscle insulin resistance (treatment),[3]; Zucker rats (~12 weeks of age),reduce the whole body and muscle insulin resistance
same,development of whole body and muscle insulin resistance (prevention),[3]; young Zucker rats (~3-4 weeks of age),attenuate or prevent the development of whole body and muscle insulin resistance
